Test results from ChEMBL document CHEMBL5518181, “Studies of antibacterial activity (in vitro and in vivo) and mode of action for des-acyl tridecaptins (DATs)” (Eur J Med Chem, 2024).
Values after ≈ are worked out from the molar mass of the structure shown. Active and inactive are the calls of the source. No cut-off for these calls is given here.

Legend:
Escherichia coli [1] = test: Antibacterial activity against Escherichia coli ATCC 25922 assessed as inhibition of bacterial growth incubated for 18 hrs in presence of 150 mM NaCl; type: functional, organism-based
[2] = Drug uptake in Escherichia coli ATCC 25922 at 10 uM incubated for 10 mins by LC-MS/MS analysis; type: ADME
[3] = Binding affinity to gram negative bacterial lipid II assessed as dissociation constant by ITC analysis; design: species or system Bacteria
[4] = Hemolytic activity in human red blood cells at 400 ug/ml incubated for 45 mins by spectrophotometric analysis relative to control; type: toxicity, cell-based, Erythrocyte; details: red blood cells (erythrocytes), at 400 µg/mL, read-out: Activity
Klebsiella aerogenes = test: Antibacterial activity against Enterobacter aerogenes ATCC 13048 assessed as inhibition of bacterial growth incubated for 18 hrs; type: functional; details: read-out: MIC100
Proteus mirabilis [5] = test: Antibacterial activity against Proteus mirabilis ATCC 7002 assessed as inhibition of bacterial growth incubated for 18 hrs; type: functional; details: read-out: MIC100
Acinetobacter baumannii = test: Antibacterial activity against wild-type Acinetobacter baumannii ATCC 19606 assessed as inhibition of bacterial growth incubated for 20 hrs; type: functional; details: read-out: MIC100
Escherichia coli [6] = test: Antibacterial activity against Escherichia coli ATCC 25922 assessed as inhibition of bacterial growth incubated for 18 hrs in presence of 25 mM bicarbonate; type: functional, organism-based
Citrobacter freundii = test: Antibacterial activity against Citrobacter freundii ATCC 8090 assessed as inhibition of bacterial growth incubated for 18 hrs; type: functional; details: read-out: MIC100
Lipopolysaccharide (LPS) [7] = test: Binding affinity to Escherichia coli O55:B5 LPS assessed as dissociation constant by ITC analysis; type: subcellular
Serratia marcescens = test: Antibacterial activity against intrinsically colistin resistant Serratia marcescens ATCC 13880 assessed as inhibition of bacterial growth incubated for 18 hrs; type: functional; details: read-out: MIC100
Cell membrane [8] = test: Induction of membrane permeabilization in Escherichia coli ATCC 25922 at 64 ug/ml measured after 2 hrs by Sytox Green labelling based microscopic analysis; type: cell membranes; details: dose 64.0 µg/ml
Klebsiella pneumoniae [9] = test: Antibacterial activity against Klebsiella pneumoniae ATCC 13883 assessed as inhibition of bacterial growth incubated for 18 hrs in presence of 2 mM CaCl2; type: functional, organism-based
Escherichia coli [10] = test: Antibacterial activity against Escherichia coli ATCC 25922 assessed as inhibition of bacterial growth incubated for 18 hrs in presence of 2 mM CaCl2; type: functional, organism-based
[11] = Clearance in human microsomes; type: ADME, Microsome
[12] = Drug uptake in Acinetobacter baumannii ATCC 19606 whole cells at 10 uM incubated for 10 mins by LC-MS/MS analysis; type: ADME
Pseudomonas aeruginosa [13] = test: Antibacterial activity against efflux-deficient Pseudomonas aeruginosa PAO750 assessed as inhibition of bacterial growth incubated for 18 hrs; type: functional; details: read-out: MIC100
Escherichia coli [14] = test: Antibacterial activity against Escherichia coli ATCC BAA-2469 expressing NDM-1 assessed as inhibition of bacterial growth incubated for 18 hrs; type: functional; details: read-out: MIC100
Lipopolysaccharide (LPS) [15] = test: Binding affinity to Pseudomonas aeruginosa LPS assessed as dissociation constant by ITC analysis; type: subcellular
Escherichia coli [16] = test: Antibacterial activity against Escherichia coli ATCC 25922 assessed as inhibition of bacterial growth incubated for 18 hrs in presence of 5 mM KCl; type: functional, organism-based
Enterobacter cloacae = test: Antibacterial activity against Enterobacter cloacae ATCC 23355 assessed as inhibition of bacterial growth incubated for 18 hrs; type: functional; details: read-out: MIC100
[17] = Drug uptake in Proteus mirabilis ATCC 7002 whole cells at 10 uM incubated for 10 mins by LC-MS/MS analysis; type: ADME
[18] = Aqueous solubility of compound at pH 4.6; type: physicochemical
[19] = Hydrophobicity of compound assessed as %MeCN at peak elution by RP-HPLC analysis; type: physicochemical
Klebsiella pneumoniae [20] = test: Antibacterial activity against Klebsiella pneumoniae ATCC 13883 assessed as inhibition of bacterial growth incubated for 18 hrs in presence of 150 mM NaCl; type: functional, organism-based
[21] = Clearance in rat microsomes; type: ADME, Microsome
[22] = Drug localization in cytoplasm of Escherichia coli ATCC 25922 at 10 uM incubated for 10 mins by LC-MS/MS analysis; type: ADME, subcellular
Escherichia coli [23] = test: Antibacterial activity against Escherichia coli ATCC 25922 harboring tolC knock-out assessed as inhibition of bacterial growth incubated for 18 hrs; type: functional; details: read-out: MIC100
Salmonella typhimurium = test: Antibacterial activity against Salmonella typhimurium ATCC 13311 assessed as inhibition of bacterial growth incubated for 18 hrs; type: functional, Salmonella enterica subsp. enterica serovar Typhimurium; details: Salmonella enterica, read-out: MIC100
Providencia stuartii = test: Antibacterial activity against Providencia stuartii ATCC 25826 assessed as inhibition of bacterial growth incubated for 18 hrs; type: functional; details: read-out: MIC100
Cell membrane [24] = test: Induction of membrane permeabilization in Klebsiella pneumoniae ATCC 13883 at 64 ug/ml measured after 2 hrs by Sytox Green labelling based microscopic analysis; type: cell membranes; details: dose 64.0 µg/ml
[25] = Aqueous solubility of compound at pH 7.4; type: physicochemical
Pseudomonas aeruginosa [26] = test: Antibacterial activity against wild-type Pseudomonas aeruginosa PAO1 assessed as inhibition of bacterial growth incubated for 24 hrs; type: functional; details: read-out: MIC100
Proteus mirabilis [27] = test: Antibacterial activity against Proteus mirabilis ATCC 25933 assessed as inhibition of bacterial growth incubated for 18 hrs; type: functional; details: read-out: MIC100
[28] = Drug uptake in Pseudomonas aeruginosa PAO1 whole cells at 10 uM incubated for 10 mins by LC-MS/MS analysis; type: ADME
Klebsiella pneumoniae [29] = test: Antibacterial activity against Klebsiella pneumoniae ATCC 13883 assessed as inhibition of bacterial growth incubated for 18 hrs in presence of 5 mM KCl; type: functional, organism-based
Klebsiella pneumoniae [30] = test: Antibacterial activity against Klebsiella pneumoniae ATCC 13883 assessed as inhibition of bacterial growth incubated for 18 hrs in presence of 25 mM bicarbonate; type: functional, organism-based
Cell membrane [31] = test: Induction of membrane permeabilization in Escherichia coli ATCC 25922 at 64 ug/ml measured immediately by Sytox Green labelling based microscopic analysis; type: cell membranes; details: dose 64.0 µg/ml
Escherichia coli [32] = test: Antibacterial activity against colistin resistant Escherichia coli NCTC 13846 harboring mcr-1 gene assessed as inhibition of bacterial growth incubated for 18 hrs; type: functional; details: read-out: MIC100
Klebsiella pneumoniae [33] = test: Antibacterial activity against Klebsiella pneumoniae ATCC 13883 assessed as inhibition of bacterial growth incubated for 18 hrs in presence of 2 mM MgCl2; type: functional, organism-based
Escherichia coli [34] = test: Antibacterial activity against Escherichia coli ATCC 25922 harboring hldE knock-out assessed as inhibition of bacterial growth incubated for 18 hrs; type: functional; details: read-out: MIC100
Staphylococcus aureus [35] = test: Antibacterial activity against […] assessed as inhibition of bacterial growth incubated for 18 hrs; type: functional; details: ATCC 29213, read-out: MIC100
Staphylococcus aureus [36] = test: Antibacterial activity against wild type Staphylococcus aureus USA300 assessed as inhibition of bacterial growth incubated for 18 hrs; type: functional; details: read-out: MIC100
Klebsiella pneumoniae [37] = test: Antibacterial activity against Klebsiella pneumoniae ATCC BAA-2470 expressing NDM-1 assessed as inhibition of bacterial growth incubated for 18 hrs; type: functional; details: read-out: MIC100
Klebsiella pneumoniae [38] = test: Antibacterial activity against wild-type Klebsiella pneumoniae ATCC 13883 assessed as inhibition of bacterial growth incubated for 18 hrs in presence of 50% heat inactivated human serum; type: functional; details: read-out: MIC100
Cell membrane [39] = test: Induction of membrane permeabilization in Escherichia coli ATCC 25922 at 64 ug/ml measured after 30 mins by Sytox Green labelling based microscopic analysis; type: cell membranes; details: dose 64.0 µg/ml
Klebsiella pneumoniae [40] = test: Antibacterial activity against wild-type Klebsiella pneumoniae ATCC 13883 assessed as inhibition of bacterial growth incubated for 18 hrs; type: functional; details: read-out: MIC100
Escherichia coli [41] = test: Antibacterial activity against Escherichia coli ATCC 25922 assessed as inhibition of bacterial growth incubated for 18 hrs in presence of 2 mM MgCl2; type: functional, organism-based
Klebsiella pneumoniae [42] = test: Antibacterial activity against Klebsiella pneumoniae ATCC 43816 assessed as inhibition of bacterial growth incubated for 18 hrs; type: functional; details: read-out: MIC100
[43] = Lipophilicity, logD of compound at pH 7.4; type: physicochemical; details: buffer
[44] = Drug uptake in Escherichia coli ATCC 25922 whole cells at 10 uM incubated for 10 mins by LC-MS/MS analysis; type: ADME
[45] = Cytotoxicity against human HepG2 cells incubated for 40 hrs by celltiter-glo luminescent cell viability assay; type: toxicity, cell-based
Escherichia coli [46] = test: Antibacterial activity against wild-type Escherichia coli ATCC 25922 assessed as inhibition of bacterial growth incubated for 18 hrs in presence of 50% heat inactivated human serum; type: functional; details: read-out: MIC100
[47] = Clearance in mouse microsomes; type: ADME, Microsome
Escherichia coli [48] = test: Antibacterial activity against wild-type Escherichia coli ATCC 25922 assessed as inhibition of bacterial growth incubated for 18 hrs; type: functional; details: read-out: MIC100
Morganella morganii = test: Antibacterial activity against Morganella morganii ATCC 25830 assessed as inhibition of bacterial growth incubated for 18 hrs; type: functional; details: read-out: MIC100
Cell membrane [49] = test: Induction of membrane permeabilization in Klebsiella pneumoniae ATCC 13883 at 64 ug/ml measured after 30 mins by Sytox Green labelling based microscopic analysis; type: cell membranes; details: dose 64.0 µg/ml

CC[C@H](C)[C@@H](NC(=O)[C@@H](NC(=O)[C@H](CCC(=O)O)NC(=O)[C@H](Cc1ccccc1)NC(=O)[C@@H](CCN)NC(=O)[C@H](CCN)NC(=O)[C@H](CO)NC(=O)[C@@H](Cc1c[nH]c2ccccc12)NC(=O)[C@@H](CO)NC(=O)CNC(=O)[C@@H](CCN)NC(=O)[C@H](N)C(C)C)C(C)C)C(=O)N[C@@H](C)C(=O)O
Activity (Escherichia coli [1]): Active | Drug uptake [2]: Active | Kd [3]: 0.6 µM | hemolysis at 0.75 h, 400 ug/ml [4]: 3.6% | MIC (Klebsiella aerogenes): > 32 µg/mL | MIC (Proteus mirabilis [5]): > 64 µg/mL | MIC (Acinetobacter baumannii): 32 µg/mL (≈ 22.9 µM) | Activity (Escherichia coli [6]): Active | MIC (Citrobacter freundii): 32 µg/mL (≈ 22.9 µM) | Kd (Lipopolysaccharide (LPS) [7]): 5.7 µM | MIC (Serratia marcescens): 32 µg/mL (≈ 22.9 µM) | Activity (Cell membrane [8]): Active | Activity (Klebsiella pneumoniae [9]): Active | Activity (Escherichia coli [10]): Active | microsomal CLint [11]: 22 µL/min/mg | Drug uptake [12]: ~ 60 ng | MIC (Pseudomonas aeruginosa [13]): > 32 µg/mL | MIC (Escherichia coli [14]): > 32 µg/mL | Kd (Lipopolysaccharide (LPS) [15]): 13.5 µM | Activity (Escherichia coli [16]): Active | MIC (Enterobacter cloacae): > 32 µg/mL | Drug uptake [17]: ~ 60 ng | solubility [18]: > 1000 µg/mL | MeCN percentage at peak elution [19]: 42% | Activity (Klebsiella pneumoniae [20]): Active | microsomal CLint [21]: 108 µL/min/mg | Drug uptake [22]: Active | MIC (Escherichia coli [23]): > 32 µg/mL | MIC (Salmonella typhimurium): > 32 µg/mL | MIC (Providencia stuartii): > 32 µg/mL | Activity (Cell membrane [24]): Active | solubility [25]: > 1000 µg/mL | MIC (Pseudomonas aeruginosa [26]): > 64 µg/mL | MIC (Proteus mirabilis [27]): > 32 µg/mL | Drug uptake [28]: ~ 60 ng | Activity (Klebsiella pneumoniae [29]): Active | Activity (Klebsiella pneumoniae [30]): Active | Activity (Cell membrane [31]): inactive | MIC (Escherichia coli [32]): 32 µg/mL (≈ 22.9 µM) | Activity (Klebsiella pneumoniae [33]): Active | MIC (Escherichia coli [34]): 8 µg/mL (≈ 5.74 µM) | MIC (Staphylococcus aureus [35]): 32 µg/mL (≈ 22.9 µM) | MIC (Staphylococcus aureus [36]): > 32 µg/mL | MIC (Klebsiella pneumoniae [37]): 32 µg/mL (≈ 22.9 µM) | MIC (Klebsiella pneumoniae [38]): 8 µg/mL | Activity (Cell membrane [39]): inactive | MIC (Klebsiella pneumoniae [40]): 32 µg/mL (≈ 22.9 µM) | Activity (Escherichia coli [41]): Active | MIC (Klebsiella pneumoniae [42]): 8 µg/mL (≈ 5.74 µM) | logD [43]: 1.09 | Drug uptake [44]: ~ 60 ng | IC50 at 40 h [45]: 76 µg/mL (≈ 54.5 µM) | MIC (Escherichia coli [46]): 32 µg/mL | microsomal CLint [47]: 25 µL/min/mg | MIC (Escherichia coli [48]): 32 µg/mL (≈ 22.9 µM) | MIC (Morganella morganii): > 32 µg/mL | Activity (Cell membrane [49]): inactive
